Data: the supplement of paper PMC10307832

Tests used:
Experiment in all cases: relative viability (nuclei count vs DMSO), 5 days (fraction); higher = more cells survive
Ibrutinib + Bortezomib = compound: C=CC(=O)N1CCC[C@@H](n2nc(-c3ccc(Oc4ccccc4)cc3)c3c(N)ncnc32)C1 [Ibrutinib] + CC(C)C[C@H](NC(=O)[C@H](Cc1ccccc1)NC(=O)c1cnccn1)B(O)O [Bortezomib] (partner 0.002 µM)
In short: (§1)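 Lung cancer cell lines were seeded in 1536-well plates and dosed by pin tool the next day, with either a single drug or a fixed anchor-drug dose combined with five library-drug doses (not always all listed) spaced in √10 steps. Five days later, one step fixed the cells and stained their nuclei (final 0.05% Triton X-100, 1% formaldehyde, 1 ug/ml Hoechst), and nuclei were counted on 4× images. Relative viability is the nuclei count in treated wells divided by the count in vehicle wells, and each value is the median of duplicate plates.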

PAC-1 + Pemetrexed = compound: C=CCc1cccc(/C=N/NC(=O)CN2CCN(Cc3ccccc3)CC2)c1O [PAC-1] + Nc1nc2[nH]cc(CCc3ccc(C(=O)N[C@@H](CCC(=O)O)C(=O)O)cc3)c2c(=O)[nH]1 [Pemetrexed] (partner 0.2 µM)
In short: as §1

Ibrutinib + Linsitinib = compound: C=CC(=O)N1CCC[C@@H](n2nc(-c3ccc(Oc4ccccc4)cc3)c3c(N)ncnc32)C1 [Ibrutinib] + C[C@]1(O)C[C@@H](c2nc(-c3ccc4ccc(-c5ccccc5)nc4c3)c3c(N)nccn32)C1 [Linsitinib] (partner 1 µM)
In short: as §1

BMX-IN-1 + Palbociclib = compound: C=CC(=O)Nc1cc(-n2c(=O)ccc3cnc4ccc(-c5ccc(NS(C)(=O)=O)cc5)cc4c32)ccc1C [BMX-IN-1] + CC(=O)c1c(C)c2cnc(Nc3ccc(N4CCNCC4)cn3)nc2n(C2CCCC2)c1=O [Palbociclib] (partner 0.5 µM)
In short: as §1

Cell Line | relative viability (Ibrutinib + Bortezomib; first compound 0.005 µM) | relative viability (Ibrutinib + Bortezomib; first compound 0.01581 µM) | relative viability (Ibrutinib + Bortezomib; first compound 0.05 µM) | relative viability (Ibrutinib + Bortezomib; first compound 0.1581 µM) | relative viability (Ibrutinib + Bortezomib; first compound 0.5 µM) | relative viability (PAC-1 + Pemetrexed; first compound 0.02 µM) | relative viability (PAC-1 + Pemetrexed; first compound 0.06325 µM) | relative viability (PAC-1 + Pemetrexed; first compound 0.2 µM) | relative viability (PAC-1 + Pemetrexed; first compound 2 µM) | relative viability (Ibrutinib + Linsitinib; first compound 0.005 µM) | relative viability (Ibrutinib + Linsitinib; first compound 0.01581 µM) | relative viability (Ibrutinib + Linsitinib; first compound 0.05 µM) | relative viability (Ibrutinib + Linsitinib; first compound 0.1581 µM) | relative viability (Ibrutinib + Linsitinib; first compound 0.5 µM) | relative viability (BMX-IN-1 + Palbociclib; first compound 0.02 µM) | relative viability (BMX-IN-1 + Palbociclib; first compound 0.2 µM) | relative viability (BMX-IN-1 + Palbociclib; first compound 0.6325 µM) | relative viability (BMX-IN-1 + Palbociclib; first compound 2 µM)
HCC-827 | 1.19 | 1.05 | 1.15 | 0.982 | 0.807 | 0.275 | 0.259 | 0.256 | 0.256 | 1.01 | 0.947 | 1.01 | 0.854 | 0.32 | 0.486 | 0.409 | 0.503 | 0.467
HOP-62 | 0.459 | 1 | 0.816 | 0.834 | 0.804 | 0.356 | 0.267 | 0.312 | 0.34 | 0.761 | 0.771 | 0.979 | 1.17 | 1.07 | 0.53 | 0.543 | 0.48 | 0.471
IA-LM | 0.846 | 0.781 | 0.926 | 0.989 | 0.863 |  |  |  |  | 0.397 | 0.658 | 0.453 | 0.512 | 0.56 |  |  |  | 
LC-2-ad | 1.18 | 1 | 1.06 | 0.965 | 1.02 | 0.26 | 0.296 | 0.265 | 0.27 | 0.829 | 0.778 | 0.89 | 0.869 | 0.745 | 0.498 | 0.574 | 0.543 | 0.509
LCLC-97TM1 | 0.447 | 0.851 | 0.385 | 0.153 | 0.732 | 0.184 | 0.177 |  | 0.191 | 0.179 |  | 0.175 | 0.2 | 0.169 | 0.247 | 0.3 | 0.227 | 0.217
LCLC-103H | 0.999 | 1.01 | 1.07 | 0.986 | 1.05 | 0.468 | 0.419 | 0.436 | 0.451 | 1.28 | 1.16 | 1.09 | 1.1 | 1.03 | 0.475 | 0.532 | 0.479 | 0.412
LK-2 |  |  |  |  |  | 0.238 | 0.244 | 0.246 | 0.321 | 0.422 | 0.7 | 0.552 | 0.377 | 0.528 | 1.1 | 0.75 | 0.704 | 0.895
LOU-NH91 | 0.509 | 0.553 | 0.513 | 0.476 | 0.478 | 0.368 | 0.365 | 0.379 | 0.39 | 0.834 | 0.733 | 0.739 | 0.892 | 0.492 |  | 0.541 | 0.488 | 0.546
LU99A | 1.01 | 0.97 | 1.28 | 1.21 | 1.2 | 0.192 | 0.162 | 0.182 | 0.177 | 0.504 | 0.51 | 0.497 | 0.54 | 0.521 | 0.45 | 0.428 | 0.421 | 0.411
NCI-H358 |  |  |  |  |  | 0.165 | 0.161 | 0.187 | 0.183 | 0.563 | 0.394 | 0.355 | 0.743 | 0.28 | 0.129 | 0.138 | 0.147 | 0.122
NCI-H522 |  |  |  |  |  | 0.945 | 0.902 | 1.08 | 0.955 |  |  |  |  |  | 0.841 | 1.14 | 1.02 | 0.86
NCI-H596 | 1.21 | 0.457 |  | 0.834 | 0.92 | 0.435 | 0.471 | 0.477 | 0.54 | 1.13 | 0.946 | 0.99 | 0.996 | 0.841 |  |  |  | 
NCI-H727 | 0.628 | 0.796 | 0.981 | 0.623 | 0.785 |  |  |  |  | 0.285 | 0.288 | 0.319 | 0.203 | 0.31 | 0.611 | 0.672 | 0.625 | 0.592
NCI-H1299 | 1.02 | 1 | 0.995 | 1.02 | 1.04 |  |  |  |  | 0.497 | 0.993 | 0.961 | 0.966 | 1.03 |  |  |  | 
NCI-H1395 |  |  |  |  |  | 0.868 | 0.799 | 0.781 | 0.923 | 1.16 | 0.968 | 0.995 | 1.45 | 1.13 | 0.702 | 0.62 | 0.572 | 0.588
NCI-H1563 | 0.778 | 0.771 | 0.807 | 0.742 | 0.752 | 0.787 | 0.746 | 0.776 | 0.949 | 1.37 | 1.08 | 1.33 | 1.16 | 1.06 |  |  |  | 
NCI-H1648 |  |  |  |  |  | 0.676 | 0.838 | 0.81 | 0.646 |  |  |  |  |  | 0.251 | 0.256 | 0.286 | 0.31
NCI-H1650 | 0.22 | 0.216 | 0.23 | 0.203 | 0.22 | 0.365 | 0.387 | 0.321 | 0.387 |  |  |  |  |  | 0.307 | 0.313 | 0.32 | 0.333
NCI-H1703 | 0.374 | 0.308 | 0.332 | 0.409 | 0.231 |  |  |  |  | 0.178 | 0.676 | 0.632 | 0.467 | 0.627 |  |  |  | 
NCI-H1793 |  |  |  |  |  | 0.811 | 0.952 | 0.835 | 0.837 |  | 0.66 | 0.652 | 0.797 | 0.509 | 0.38 | 0.35 | 0.285 | 0.307
NCI-H1944 |  |  |  |  |  | 0.595 | 0.65 | 0.623 | 0.627 | 1.05 | 1.01 | 1.23 | 1.05 | 0.568 | 0.35 | 0.357 | 0.327 | 0.288
NCI-H2170 |  |  |  |  |  | 0.259 | 0.252 | 0.257 | 0.278 |  |  |  |  |  | 0.426 | 0.421 | 0.447 | 0.373
NCI-H2342 |  |  |  |  |  | 0.851 | 0.754 | 0.727 | 0.781 |  |  |  |  |  | 0.578 | 0.519 | 0.51 | 0.568
SW 900 |  |  |  |  |  |  | 0.456 | 0.456 | 0.531 |  |  |  |  |  | 0.467 | 0.676 | 0.53 | 0.626
